Experimental data from patent US20260226493A1, “HERBICIDE RESISTANT PLANTS” (SYNGENTA CROP PROTECTION AG, priority 2023, published 2026).
Where “and” joins values, the source holds several entries; their conditions need not be identical. Identical values can stand only once.

How the values were obtained:
[1] = system: D4596 (Arabidopsis thaliana BIO3-BIO1 F348C) containing tobacco plants; experiment: Visual herbicide damage score on transgenic tobacco D4596 (pCMP AtBioDA F348C); type: in vivo; settings: 600 gai/ha; 7 DAT; each table row is one D4596 transgenic plant
Description: (§1) Populations of transgenic tobacco comprising 20-30 transgenic events per plant transformation constructs were generated as described in Example 1. These lines were clonally propagated and 1 clone per event was sprayed with 600 g ai/ha compound L or A+0.2% Genapol X080 with a spray volume of 200 L/Ha (“g ai/ha” refers to grams of active compound per hectare).
(§2) Herbicidal damage was visually assessed across the population and a herbicide damage score given at 7, 14 and 21 days. A score of 0 indicates no visible damage or stunting whereas a score of 100 indicates a complete death of the plant. 20 transgenic events (i.e. individual transgenic plants) from each GM tobacco line were transplanted to soil 1 week prior to spraying with BIO3-BIO1inhibiting compounds. WT tobacco was included as a control.
(§3) To determine if overexpression of variants detailed in Example 7 confer resistance to BIO3-BIO1 inhibiting compounds when expressed in plants, GM tobacco lines were produced using the methods in Example 1 and tested with BIO3-BIO1 inhibiting compounds.
(§4) Transgenic tobacco plants expressing the Arabidopsis thaliana BIO3-BIO1 variants C388D (SEQ ID NO:26), P421L(SEQ ID NO:41), F348C (SEQ ID NO:28), G700S (SEQ ID NO:39), W392S (SEQ ID NO:70) and the Zea mays BIO3-BIO1 variant C372D (SEQ ID NO:324). Populations of transgenic tobacco were sprayed and assessed as in Example 2

[2] = biological target: T1, Arabidopsis thaliana BIO3-BIO1 (BioDA) mutants (Arabidopsis thaliana, UniProt B0F481, A507K); experiment: BIO3-BIO1 mutant enzyme activity in the presence of herbicide, percentage inhibition (fluorometric DAPA assay); type: biochemical; settings: read-out: percentage inhibition
T1 construct: with the predicted N-terminal mitochondrial transit peptide removed; 6xHis-tag (N); thrombin cleavage site (N); made in house; host or cells: E. coli BL21 (DE3) bioA
T1 sequence (B0F481 23-833 A507K): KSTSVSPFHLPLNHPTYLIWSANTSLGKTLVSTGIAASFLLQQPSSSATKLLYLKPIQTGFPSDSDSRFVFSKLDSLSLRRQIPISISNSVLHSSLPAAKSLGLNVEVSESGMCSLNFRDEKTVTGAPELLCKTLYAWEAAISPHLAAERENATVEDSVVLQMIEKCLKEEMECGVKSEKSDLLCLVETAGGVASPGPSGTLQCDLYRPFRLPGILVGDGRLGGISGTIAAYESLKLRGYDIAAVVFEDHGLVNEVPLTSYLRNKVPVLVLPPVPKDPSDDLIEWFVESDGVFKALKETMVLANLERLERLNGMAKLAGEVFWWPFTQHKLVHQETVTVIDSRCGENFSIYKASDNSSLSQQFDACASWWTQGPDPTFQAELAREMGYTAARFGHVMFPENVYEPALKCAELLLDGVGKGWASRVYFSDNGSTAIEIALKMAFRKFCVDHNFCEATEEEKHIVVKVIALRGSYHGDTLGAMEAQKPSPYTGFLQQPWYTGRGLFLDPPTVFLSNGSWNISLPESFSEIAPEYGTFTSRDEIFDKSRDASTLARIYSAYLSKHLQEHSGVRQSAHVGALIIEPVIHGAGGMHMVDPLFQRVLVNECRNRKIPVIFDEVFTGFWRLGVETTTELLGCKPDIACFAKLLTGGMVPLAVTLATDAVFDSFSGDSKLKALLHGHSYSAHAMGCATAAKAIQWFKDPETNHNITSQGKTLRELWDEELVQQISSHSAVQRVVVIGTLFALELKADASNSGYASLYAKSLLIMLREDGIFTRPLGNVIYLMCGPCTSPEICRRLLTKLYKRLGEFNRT
How it was run: (§5)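 Percentage inhibition compares activity at one of three herbicide concentrations against DMSO, from o-phthalaldehyde-derivatised DAPA fluorescence (ex 410, em 470 nm). Purified N-His BIO3-BIO1 variants (50 nM, E. coli-expressed) saw herbicide 10 min at 20 °C in pH 8.6 EPPS buffer, then 20 μM KAPA plus 100 μM spermidine for 75 min at 20 °C.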

[3] = biological target: T2, Arabidopsis thaliana BIO3-BIO1 (BioDA) mutants (Arabidopsis thaliana, UniProt B0F481, A507S); experiment: as above; type: biochemical; settings: read-out: percentage inhibition
T2 construct: with the predicted N-terminal mitochondrial transit peptide removed; 6xHis-tag (N); thrombin cleavage site (N); made in house; host or cells: E. coli BL21 (DE3) bioA
T2 sequence (B0F481 23-833 A507S): as the sequence (B0F481 23-833 A507K) above, with K485S counted along it
How it was run: as §5

[4] = biological target: T3, Arabidopsis thaliana BIO3-BIO1 (BioDA) mutants (Arabidopsis thaliana, UniProt B0F481, DEL508-508); experiment: as above; type: biochemical; settings: read-out: percentage inhibition
T3 construct: with the predicted N-terminal mitochondrial transit peptide removed; 6xHis-tag (N); thrombin cleavage site (N); made in house; host or cells: E. coli BL21 (DE3) bioA
T3 sequence (B0F481 other isoform, or with tags, fused parts or gaps DEL508-508): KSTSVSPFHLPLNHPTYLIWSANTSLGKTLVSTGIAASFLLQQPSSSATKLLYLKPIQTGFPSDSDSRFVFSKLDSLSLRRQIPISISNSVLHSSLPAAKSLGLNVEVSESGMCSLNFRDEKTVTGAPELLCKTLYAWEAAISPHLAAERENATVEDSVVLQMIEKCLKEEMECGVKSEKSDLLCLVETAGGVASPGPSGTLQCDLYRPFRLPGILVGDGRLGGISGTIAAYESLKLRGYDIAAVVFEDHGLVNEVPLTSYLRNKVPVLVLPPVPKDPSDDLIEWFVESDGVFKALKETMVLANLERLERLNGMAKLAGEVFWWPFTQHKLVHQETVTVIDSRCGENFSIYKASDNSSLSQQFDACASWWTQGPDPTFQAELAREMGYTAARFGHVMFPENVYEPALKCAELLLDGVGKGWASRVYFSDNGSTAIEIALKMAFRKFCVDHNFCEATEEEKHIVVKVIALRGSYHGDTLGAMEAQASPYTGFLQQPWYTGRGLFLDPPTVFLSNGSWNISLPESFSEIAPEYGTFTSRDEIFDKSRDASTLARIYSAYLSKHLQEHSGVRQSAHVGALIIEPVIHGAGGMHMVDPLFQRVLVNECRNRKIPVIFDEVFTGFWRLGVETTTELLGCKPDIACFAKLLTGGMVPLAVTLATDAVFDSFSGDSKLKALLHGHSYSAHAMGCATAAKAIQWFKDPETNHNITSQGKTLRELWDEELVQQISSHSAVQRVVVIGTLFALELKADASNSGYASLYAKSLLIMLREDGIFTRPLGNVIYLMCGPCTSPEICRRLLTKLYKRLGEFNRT
How it was run: as §5

[5] = biological target: T4, Arabidopsis thaliana BIO3-BIO1 (BioDA) mutants (Arabidopsis thaliana, UniProt B0F481, Q506A); experiment: as above; type: biochemical; settings: read-out: percentage inhibition
T4 construct: with the predicted N-terminal mitochondrial transit peptide removed; 6xHis-tag (N); thrombin cleavage site (N); made in house; host or cells: E. coli BL21 (DE3) bioA
T4 sequence (B0F481 23-833 Q506A): as the sequence (B0F481 23-833 A507K) above, with Q484A, K485A counted along it
How it was run: as §5

[6] = system: D4586 (Zea mays BIO3-BIO1 C372D) containing tobacco plants; experiment: Visual herbicide damage score on transgenic tobacco D4586 (pCMP ZmBioDA C372D); type: in vivo; settings: 600 gai/ha; 7 DAT; each table row is one D4586 transgenic plant
Description: as §1, §2, §3, §4

SMILES	percentage of damage [1]	inhibition at 1 µM [2]	inhibition at 1 µM [3]	inhibition at 1 µM [4]	inhibition at 1 µM [5]	percentage of damage [6]
CCOC(=O)c1nn(-c2ccc3c(c2)OC(F)(F)C(F)(F)O3)c2cccc(C(C)=O)c2c1=O [Compound A, ethyl 5-acetyl-4-oxo-1-(2,2,3,3-tetrafluoro-1,4-benzodioxin-6-yl)cinnoline-3-carboxylate]	0% and 3%	81%	63%	22%	0%	
CCn1c(Cn2ccc(C(F)(F)F)n2)cc(=O)c(C(=O)O)c1-c1ccc(Cl)c(Cl)c1 [Compound L, 2-(3,4-dichlorophenyl)-1-ethyl-4-oxo-6-[[3-(trifluoromethyl)pyrazol-1-yl]methyl]pyridine-3-carboxylic acid]						10%
